Experimental data as given in patent publication US20240174680A1, “CDK2 INHIBITORS AND METHODS OF USING THE SAME” (Cedilla Therapeutics, Inc., priority 2021, published 2024).

Biological target: CDK2/Cyclin E1 (Homo sapiens, UniProt P24941)
Assay: CDK2/Cyclin E1 Caliper LabChip EZ Reader mobility shift assay
Assay type: biochemical
Design: purchased Eurofins 14-475
Details: read-out: Caliper Assay (CDK2/CCNE1): IC50
In short: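 Mobility-shift kinase assay: compound titrations preincubated 30 min with enzyme and ATP, reaction started with 5-FAM-QSPKKG-CONH2 peptide. Final 2.5 nM CDK2/Cyclin E1, 100 μM ATP, 1.5 μM peptide, HEPES pH 7.5; stopped with EDTA after 100 min. IC50 from four-parameter fit of normalized conversion ratio.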

SMILES	IC50 [µM]
C[C@@H](OCC1CCCCC1)[C@H](NC(=O)[C@H]1CN(C(=O)c2cnn(Cc3ccccc3)c2)CC12CN(C(=O)[C@H]1CC1(C)C)C2)C(=O)N1CCC(F)(F)CC1 [I-149B]	0.1 to 1
CO[C@H]1COCC[C@@H]1NC(=O)[C@@H]1CN(C(=O)c2cnn(Cc3ccccc3)c2)CC12CN(C(=O)[C@H]1CC1(C)C)C2 [I-148A]	> 10
COC[C@H]1CCCN(C(=O)[C@@H](NC(=O)[C@@H]2CN(C(=O)c3cncs3)CC23CN(C(=O)[C@H]2CC2(C)C)C3)[C@@H](C)O[C@@H](C)C2CCCCC2)C1 [I-369]	≤ 0.01
CNC(=O)[C@@H](NC(=O)[C@@H]1CN(Cc2ccccn2)CC12CN(C(=O)[C@H]1CC1(C)C)C2)[C@@H](C)OCc1ccccc1 [I-40A]	> 10
CNC(=O)[C@@H](NC(=O)[C@H]1CN(C(=O)c2cnc(C3CC3)s2)CC12CN(C(=O)[C@H]1CC1(C)C)C2)[C@@H](C)OCC1CCCCC1 [I-178B]	> 10
CNC(=O)[C@@H](NC(=O)[C@H]1CN(C(=O)c2cnc(C(F)(F)F)s2)CC12CN(C(=O)[C@H]1CC1(C)C)C2)[C@@H](C)OCC1CCCCC1 [I-161B]	> 10
CNC(=O)[C@@H](NC(=O)[C@@H]1CN(C(=O)c2cnn(Cc3ccccc3)c2)CC12CN(C(=O)C(C)(C)C)C2)[C@@H](C)OCC1CCCCC1 [I-174A]	0.01 to 0.1
CNC(=O)[C@@H](NC(=O)[C@H]1CN(C(=O)c2cnn(Cc3ccccc3)c2)CC12CN(C(=O)[C@H]1CC1(C)C)C2)[C@@H](C)OCCC1CCCCC1 [I-125B]	0.01 to 0.1
CNC(=O)[C@@H](NC(=O)[C@@H]1CN(C(=O)c2cnc(CC3CC3)s2)CC12CN(C(=O)[C@H]1CC1(C)C)C2)[C@@H](C)OCC1CCCCC1 [I-177A]	0.1 to 1
CNC(=O)[C@@H](NC(=O)[C@H]1CN(C(=O)c2scnc2C)CC12CN(C(=O)[C@H]1CC1(C)C)C2)[C@@H](C)OCC1CCCCC1 [I-160B]	> 10
CNC(=O)[C@@H](NC(=O)[C@H]1CN(C(=O)c2cnn(Cc3ccccc3)c2)CC12CN(C(=O)[C@H]1CC1(C)C)C2)C(C)(C)SCc1ccccc1 [I-171B]	> 10
CNC(=O)[C@@H](NC(=O)[C@H]1CN(C(=O)c2cnn(CC3CCN(C(C)=O)CC3)c2)CC12CN(C(=O)[C@H]1CC1(C)C)C2)[C@@H](C)OCc1ccccc1 [I-17B]	> 10
CNC(=O)[C@@H](NC(=O)[C@@H]1CN(C(=O)c2cnc(C(F)(F)F)s2)CC12CN(C(=O)[C@H]1CC1(C)C)C2)[C@@H](C)OCC1CCCCC1 [I-161A]	> 10
COC[C@H]1CCCN(C(=O)[C@@H](NC(=O)[C@@H]2CN(C(=O)c3cncs3)CC23CN(C(=O)[C@H]2CC2(C)C)C3)[C@@H](C)OC[C@H]2CC[C@H](N)CC2)C1 [I-433]	1 to 10
CNC(=O)[C@@H](NC(=O)[C@@H]1CN(C(=O)c2cnn(Cc3ccccc3)c2)CC12CN(C(=O)[C@H]1CC1(C)C)C2)C(C)(C)OCc1ccccc1 [I-393]	0.01 to 0.1
C[C@@H](OCc1ccccc1)[C@H](NC(=O)[C@@H]1CN(C(=O)c2cnn(Cc3ccccc3)c2)CC12CN(C(=O)[C@H]1CC1(C)C)C2)C(=O)N1CCC(F)(F)CC1 [I-280]	≤ 0.01
C[C@@H]1C[C@H](C)CN(C(=O)[C@@H](NC(=O)C2CN(C(=O)c3cn[nH]c3)CC23CN(C(=O)[C@H]2CC2(C)C)C3)[C@@H](C)OCc2ccccc2)C1 (some centres unmarked) [I-124]	0.1 to 1
CNC(=O)[C@@H](NC(=O)[C@@H]1CN(C(=O)c2cncs2)CC12CN(C(=O)[C@H]1CC1(C)C)C2)[C@@H](C)OC(C)C1CCCCC1 (some centres unmarked) [I-279]	0.01 to 0.1

SMILES	IC50 [µM]
CC(C)(O)C(NC(=O)[C@@H]1CN(C(=O)c2cncs2)CC12CN(C(=O)[C@H]1CC1(C)C)C2)c1cccc(C2CCOCC2)n1 (some centres unmarked) [I-423]	1 to 10
CNC(=O)[C@@H](NC(=O)[C@H]1CN(C(=O)c2cncs2)CC12CN(C(=O)CC1CC1)C2)[C@@H](C)OCC1CCCCC1 [I-103B]	> 10
CNC(=O)[C@@H](NC(=O)[C@H]1CN(S(=O)(=O)c2cnn(Cc3ccccc3)c2)CC12CN(C(=O)[C@H]1CC1(C)C)C2)[C@@H](C)OCc1ccccc1 [I-79B]	> 10
CO[C@H]1COCC[C@@H]1NC(=O)[C@@H]1CN(C(=O)c2cnn(Cc3ccccc3)c2)CC12CN(C(=O)[C@H]1CC1(C)C)C2 [I-131A]	> 10
CC1(C)C[C@@H]1C(=O)N1CC2(CN(C(=O)c3cnn(Cc4ccccc4)c3)C[C@H]2C(=O)N2CCC[C@H](OCC3CCCCC3)C2)C1 [I-236]	1 to 10
CNC(=O)[C@@H](NC(=O)[C@@H]1CN(C(=O)c2scnc2Cl)CC12CN(C(=O)[C@H]1CC1(C)C)C2)[C@@H](C)OCC1CCCCC1 [I-157A]	0.01 to 0.1
CC1(C)C[C@@H]1C(=O)N1CC2(CN(C(=O)c3cnn(Cc4ccccc4)c3)C[C@H]2C(=O)Nc2ccc(Cc3ccccc3)nc2)C1 [I-139, (S)-6-(1-benzyl-1H-pyrazole-4-carbonyl)-N-(6-benzylpyridin-3-yl)-2-((S)-2,2-dimethylcyclopropane-1-carbonyl)-2,6-diazaspiro[3.4]octane-8-carboxamide]	0.1 to 1
C[C@@H](OCC12CCC(CC1)OC2)[C@H](NC(=O)[C@@H]1CN(C(=O)c2sc(Cl)nc2Cl)CC12CN(C(=O)C(C)(C)C1CC1)C2)C(C)(C)O [I-471]	1 to 10
C[C@@H](OCC1CCCCC1)[C@@H](COC1CCNCC1)NC(=O)[C@@H]1CN(C(=O)c2cncs2)CC12CN(C(=O)[C@H]1CC1(C)C)C2 [I-329]	≤ 0.01
CNC(=O)[C@H](COCc1ccccc1)NC(=O)[C@H]1CN(C(=O)c2cnn(Cc3ccccc3)c2)CC12CN(C(=O)C(C)(C)C)C2 [I-100B]	> 10
CNC(=O)[C@@H](NC(=O)[C@@H]1CN(C(=O)c2cnc(C)s2)CC12CN(C(=O)[C@H]1CC1(C)C)C2)[C@@H](C)OCC1CCCCC1 [I-156A]	0.01 to 0.1
C[C@@H](OCC1CCC(F)(F)CC1)[C@H](NC(=O)[C@@H]1CN(C(=O)c2cn[nH]c2)CC12CN(C(=O)C1(C(F)(F)F)CC1)C2)C(=O)N1CCOCC1 [I-302]	0.01 to 0.1
C[C@@H](OCC12CCC(CC1)OC2)[C@H](NC(=O)[C@@H]1CN(C(=O)c2cncs2)CC12CN(C(=O)[C@H]1CC1(C)C)C2)C(=O)N1CCC(C(F)(F)F)CC1 [I-454, (S)—N-((2S,3R)-3-((2-oxabicyclo[2.2.2]octan-4-yl)methoxy)-1-oxo-1-(4-(trifluoromethyl)piperidin-1-yl)butan-2-yl)-2-((S)-2,2-dimethylcyclopropane-1-carbonyl)-6-(thiazole-5-carbonyl)-2,6-diazaspiro[3.4]octane-8-carboxamide]	≤ 0.01
CNC(=O)[C@@H](NC(=O)[C@@H]1CN(Cc2cnn(Cc3ccccc3)c2)CC12CN(C(=O)[C@H]1CC1(C)C)C2)[C@@H](C)OCc1ccccc1 [I-16A]	> 10
CNC(=O)[C@@H](NC(=O)[C@@H]1CN(C(=O)c2cnn(CC3CCNCC3)c2)CC12CN(C(=O)[C@H]1CC1(C)C)C2)[C@@H](C)OCc1ccccc1 [I-19A]	0.1 to 1
CC(O[C@H](C)[C@H](NC(=O)[C@@H]1CN(C(=O)c2cncs2)CC12CN(C(=O)[C@H]1CC1(C)C)C2)C(=O)N1CCCCC1)C1CCCCC1 (stereo partly drawn) [I-284, (8S)—N-((2S,3R)-3-(1-cyclohexylethoxy)-1-oxo-1-(piperidin-1-yl)butan-2-yl)-2-((S)-2,2-dimethylcyclopropane-1-carbonyl)-6-(thiazole-5-carbonyl)-2,6-diazaspiro[3.4]octane-8-carboxamide]	0.01 to 0.1
CNC(=O)[C@@H](NC(=O)[C@H]1CN(C(=O)c2cnc(C)s2)CC12CN(C(=O)[C@H]1CC1(C)C)C2)[C@@H](C)OCC1CCCCC1 [I-156B]	> 10
